Measured values reported in patent publication US11667652B2, “MCL1 inhibitors” (Gilead Sciences, Inc., priority 2019, dated 2023).
Read-outs that look alike come from different tables or passages of the source.

Key:
MCL1/Bim = MCL1/Bim (Homo sapiens (Human), UniProt Q07820); experiment: MCL1/Bim Binding AlphaLISA Assay; details: recombinant human 6xHis-MCL1 (171-327), biotinylated Bim peptide (51-76)
Method: MCL1/Bim Binding AlphaLISA Assay.
Inhibition of the MCL1 and Bim interaction was measured in the following AlphaLISA assay.
Recombinant human MCL1 protein (C-terminal 6×His Tagged MCL1 containing residues 171-327) was generated at Gilead Sciences, Inc. (Foster City, Calif.). A biotinylated peptide derived from human Bim (residues 51-76) was purchased from CPC Scientific (Sunnyvale, Calif.). (CPC 834113). AlphaLISA anti-6His- acceptor beads (AL128R), AlphaScreen Streptavidin donor beads (6760002B), and Proxiplate-384 Plus (6008289) were purchased from PerkinElmer.
The AlphaLISA assay was performed in a 384-well Proxiplate in a total volume of […]. The reaction mixture contained 0.0625 nM 6×His-MCL1 (171-327), 0.0625 nM biotinylated-Bim peptide, 10 μg/mL AlphaLISA anti-6×His-AlphaLISA acceptor beads, 40 μg/mL AlphaScreen streptavidin donor beads, and serially diluted test compounds in the binding buffer (20 mM Hepes, pH 7.5 (Teknova H1035); 150 mM NaCl (Promega V4221); 0.002% Brij 35 (Thermo Scientific 20150); 1 mM Dithiothreitol (DTT) Solution (Affymetrix 70726); 0.01% BSA (BioLabs B9000S)). 1,000× test compounds were pre-spotted onto 384-well Proxiplate (Labcyte Echo) by Echo 555 Liquid Handler (Labcyte Inc., San Jose, Calif.) followed by incubation of 5 μL MCL1(171-327) for 1 hour. Then 5 μL Bim (51-76) was added and incubated for 2 hours. Five μL AlphaLISA anti-6His-AlphaLISA acceptor beads were then added for 1 hour followed by addition of 5 μL AlphaScreen streptavidin donor beads for 1 hour. The reaction plates were then read on an Envision multimode reader (PerkinElmer) using AlphaScreen settings. Percent inhibition was calculated as shown below: % Inhibition=100%*(Well−Neg)/(Pos−Neg) Neg: negative control, DMSO Pos: positive control, no MCL1 protein, no biotinylated-Bim peptide

SKBR3 cells = experiment: SKBR3 Cell Viability Assay; type: cell-based; details: CellTiter Glo, read-out: MCL1 CV SKBR3 EC50
Method: SKBR3 Cell Viability Assay Materials
SKBR3 Cells (ATCC HTB-30) were obtained from ATCC (Manassas, Va.) and cultured in McCoy 5A's medium (ATCC 30-2007)+10% fetal bovine serum (SH30071.03, HyClone, Pittsburgh, Pa.) plus 1× Penicillin-Streptomycin L-glutamine (Corning 30-009-CI, Corning, N.Y.).
The cell viability assay was conducted in a 384-well tissue culture plate (Grenier 781086, Monroe, N.C.) in a total volume of 70 μL. Test compounds were prepared in 1,000×, serially diluted, and pre-spotted into 384-well tissue culture plate by Echo 555 Liquid Handler (Labcyte Inc., San Jose, Calif.). Seventy μL of 6,000 SKBR3 cells were dispensed into each well of the plate and incubated at 37° C. with 5% CO2 for 72 hours. At the end of incubation, 2× CellTiter Glo (CTG) reagents (1 part buffer with 2 parts substrate) (Promega, Madison, Wis.) were prepared, and the plate and the reagent were equilibrated to room temperature for 30 minutes. CTG reagent was added to each plate by Biomek FX at 20 μL/well with 5 times pipetting and mixing to induce cell lysis. Luminescence was read by Envision multimode reader (PerkinElmer). Percent inhibition was calculated as followed: % Inhibition=100%*(Well−Neg)/(Pos−Neg) Neg, negative control, DMSO Pos, positive control, 10 μM Puromycin

[1] = Homo sapiens, SK-BR-3, 72 hours

MCL1/Bim, sequence (Q07820 171-327): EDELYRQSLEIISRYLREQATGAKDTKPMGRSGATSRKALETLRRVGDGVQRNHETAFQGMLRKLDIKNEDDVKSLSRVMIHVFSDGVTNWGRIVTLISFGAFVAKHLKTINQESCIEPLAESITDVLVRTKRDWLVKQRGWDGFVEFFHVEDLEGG

SMILES	IC50 (MCL1/Bim)	EC50 (SKBR3 cells; [1])	EC50 (SKBR3 cells; 72 hours)
C[C@H]1C/C=C/[C@H](O)[C@@H]2CC[C@H]2CN2C[C@@]3(CCCc4cc(Cl)ccc43)COc3ccc(cc32)C(=O)N=[S@](=O)(Nc2nc(N3CCOCC3)nc3nn(C)cc23)C1 [Example 33]	0.019 nM	30.1 nM	–
C[C@@H]1[C@@H](C)C/C=C/[C@H](O)[C@@H]2CC[C@H]2CN2C[C@@]3(CCCc4cc(Cl)ccc43)COc3ccc(cc32)C(=O)N=[S@]1(=O)Nc1ncnc2nn(C)cc12 [Example 34]	0.088 nM	25.4 nM	–
COc1nn(C)cc1C(=O)N[S@@]1(=O)=NC(=O)c2ccc3c(c2)N(C[C@@H]2CC[C@H]2[C@@H](O)C#CC[C@H](C)C1)C[C@@]1(CCCc2cc(Cl)ccc21)CO3 [Example 36]	0.267 nM	–	1070 nM
COc1nn(C)cc1C(=O)N[S@@]1(=O)=NC(=O)c2ccc3c(c2)N(C[C@@H]2CC[C@H]2[C@@H](OC)C#CC[C@H](C)C1)C[C@@]1(CCCc2cc(Cl)ccc21)CO3 [Example 37]	0.04 nM	57.7 nM	–
COc1nn(C)cc1C(=O)N[S@@]1(=O)=NC(=O)c2ccc3c(c2)N(C[C@@H]2CC[C@H]2[C@H](O)/C=C/C[C@H](C)C1)C[C@@]1(CCCc2cc(Cl)ccc21)CO3 [Example 39]	0.201 nM	146 nM	–
CC[C@@H]1CC/C=C/[C@H](OC)[C@@H]2CC[C@H]2CN2C[C@@]3(CCCc4cc(Cl)ccc43)COc3ccc(cc32)C(=O)N=S1(=O)NC(=O)COC1CCOCC1 (stereo partly drawn) [Example 40]	0.101 nM	–	326 nM
CC[C@@H]1CC/C=C/[C@H](OC)[C@@H]2CC[C@H]2CN2C[C@@]3(CCCc4cc(Cl)ccc43)COc3ccc(cc32)C(=O)/[N+]([O-])=[S@]\1NC(=O)c1cn(C)nc1OC [Example 41]	0.146 nM	–	126 nM
CC[C@H]1C/C=C/[C@H](OC)[C@@H]2CC[C@H]2CN2C[C@@]3(CCCc4cc(Cl)ccc43)COc3ccc(cc32)C(=O)N=[S@](=O)(NC(=O)NC2CC2)C1 [Example 42]	0.253 nM	–	233 nM
CC[C@H]1C/C=C/[C@H](OC)[C@@H]2CC[C@H]2CN2C[C@@]3(CCCc4cc(Cl)ccc43)COc3ccc(cc32)C(=O)N=[S@@](=O)(NC(=O)c2cnn(C)c2)C1 [Example 43]	1.67 nM	–	3570 nM
CCn1ccc(OC[C@H]2C/C=C/[C@H](OC)[C@@H]3CC[C@H]3CN3C[C@@]4(CCCc5cc(Cl)ccc54)COc4ccc(cc43)C(=O)N=[S@@](=O)(NC(=O)COC3CCOCC3)C2)n1 [Example 46]	0.521 nM	–	1600 nM
COc1nn(C)cc1C(=O)N[S@]1(=O)=NC(=O)c2ccc3c(c2)N(C[C@@H]2CC[C@H]2C(=O)/C=C/C[C@H](C)C1)C[C@@]1(CCCc2cc(Cl)ccc21)CO3 [Example 47]	0.167 nM	–	81.9 nM
COc1nn(C)cc1C(=O)N[S@@]1(=O)=NC(=O)c2ccc3c(c2)N(C[C@@H]2CC[C@H]2C(=O)/C=C/C[C@H](C)[C@H]1C)C[C@@]1(CCCc2cc(Cl)ccc21)CO3 [Example 48]	0.693 nM	–	173 nM
Cn1nccc1CCC(=O)NS1(=O)=NC(=O)c2ccc3c(c2)N(C[C@@H]2CC[C@H]2[C@@H](OCCN2CCOCC2)/C=C/CCC1)C[C@@]1(CCCc2cc(Cl)ccc21)CO3 (stereo partly drawn) [Example 49]	0.194 nM	–	525 nM
C[C@H]1C/C=C/[C@H](OC(=O)c2cnn(C)c2)[C@@H]2CC[C@H]2CN2C[C@@]3(CCCc4cc(Cl)ccc43)COc3ccc(cc32)C(=O)N=[S@](=O)(NC(=O)c2cnn(C)c2)C1 [Example 51]	0.222 nM	433 nM	–

Results, then the molecule that gave them:

IC50 (MCL1/Bim)	EC50 (SKBR3 cells; [1])	EC50 (SKBR3 cells; 72 hours)	SMILES
0.081 nM	9.5 nM	–	C[C@H]1C/C=C/[C@H](OCCN2CCOCC2)[C@@H]2CC[C@H]2CN2C[C@@]3(CCCc4cc(Cl)ccc43)COc3ccc(cc32)C(=O)N=[S@](=O)(Nc2ncnc3nn(C)cc23)C1 [Example 52]
0.105 nM	–	21.7 nM	COc1nn(C)cc1C(=O)N[S@@]1(=O)=NC(=O)c2ccc3c(c2)N(C[C@@H]2CC[C@H]2[C@@H](OCCCN2CCOCC2)/C=C/C[C@H](C)C1)C[C@@]1(CCCc2cc(Cl)ccc21)CO3 [Example 53]
0.092 nM	–	103 nM	C=CCO[C@H]1/C=C/C[C@H](C)C[S@@](=O)(NC(=O)c2cn(C)nc2OC)=NC(=O)c2ccc3c(c2)N(C[C@@H]2CC[C@H]21)C[C@@]1(CCCc2cc(Cl)ccc21)CO3 [Example 54]
0.332 nM	–	426 nM	C=CCO[C@@H]1/C=C/C[C@H](C)C[S@@](=O)(NC(=O)c2cn(C)nc2OC)=NC(=O)c2ccc3c(c2)N(C[C@@H]2CC[C@H]21)C[C@@]1(CCCc2cc(Cl)ccc21)CO3 [Example 55]
0.16 nM	93.6 nM	–	COc1nn(C)cc1C(=O)N[S@@]1(=O)=NC(=O)c2ccc3c(c2)N(C[C@@H]2CC[C@H]2[C@@H](OC(=O)CCC2CCOCC2)/C=C/C[C@H](C)C1)C[C@@]1(CCCc2cc(Cl)ccc21)CO3 [Example 56]
0.098 nM	–	38.3 nM	COc1nn(C)cc1C(=O)N[S@@]1(=O)=NC(=O)c2ccc3c(c2)N(C[C@@H]2CC[C@H]2[C@@H](OCCN2CC(N(C)C)C2)/C=C/C[C@H](C)C1)C[C@@]1(CCCc2cc(Cl)ccc21)CO3 [Example 58]
0.07 nM	19.2 nM	–	COc1nn(C)cc1C(=O)N[S@@]1(=O)=NC(=O)c2ccc3c(c2)N(C[C@@H]2CC[C@H]2[C@@H](OCCN2CCN(C4COC4)CC2)/C=C/C[C@H](C)C1)C[C@@]1(CCCc2cc(Cl)ccc21)CO3 [Example 60]
0.136 nM	19.6 nM	–	COc1nn(C)cc1C(=O)N[S@@]1(=O)=NC(=O)c2ccc3c(c2)N(C[C@@H]2CC[C@H]2[C@@H](OCCN2CC(OC)C2)/C=C/C[C@H](C)C1)C[C@@]1(CCCc2cc(Cl)ccc21)CO3 [Example 61]
0.069 nM	17.5 nM	–	COc1nn(C)cc1C(=O)N[S@@]1(=O)=NC(=O)c2ccc3c(c2)N(C[C@@H]2CC[C@H]2[C@@H](OCCN2CC(C(F)F)C2)/C=C/C[C@H](C)C1)C[C@@]1(CCCc2cc(Cl)ccc21)CO3 [Example 62]
0.034 nM	25.2 nM	–	COc1nn(C)cc1C(=O)N[S@@]1(=O)=NC(=O)c2ccc3c(c2)N(C[C@@H]2CC[C@H]2[C@@H](OCCN2CCC(OC)CC2)/C=C/C[C@H](C)C1)C[C@@]1(CCCc2cc(Cl)ccc21)CO3 [Example 63]
0.039 nM	8.6 nM	–	CO[C@H]1/C=C/[C@H](O)[C@H](C)C[S@@](=O)(Nc2ncnc3nn(C)cc23)=NC(=O)c2ccc3c(c2)N(C[C@@H]2CC[C@H]21)C[C@@]1(CCCc2cc(Cl)ccc21)CO3 [Example 66]
0.2 nM	–	93.8 nM	COc1nn(C)cc1C(=O)N[S@@]1(=O)=NC(=O)c2ccc3c(c2)N(C[C@@H]2CC[C@H]2[C@@H](OC)/C=C/[C@@H](OC)[C@H](C)[C@H]1C)C[C@@]1(CCCc2cc(Cl)ccc21)CO3 [Example 68]
2.07 nM	–	1000 nM	COc1nn(C)cc1C(=O)N[S@@]1(=O)=NC(=O)c2ccc3c(c2)N(C[C@@H]2CC[C@H]2[C@@H](OC)/C=C/[C@@H](OC)[C@H](C)[C@H]1C)C[C@@]1(CCCc2cc(Cl)ccc21)CO3 [Example 69]
0.198 nM	–	92.9 nM	CO[C@H]1/C=C/[C@H](OC)[C@H](C)C[S@@](=O)(NC(=O)c2cn(C)nc2OCCN2CCOCC2)=NC(=O)c2ccc3c(c2)N(C[C@@H]2CC[C@H]21)C[C@@]1(CCCc2cc(Cl)ccc21)CO3 [Example 70]
0.894 nM	–	192 nM	CO[C@H]1/C=C/[C@H](OC)CC[S@@](=O)(Nc2ncnc3nn(C)cc23)=NC(=O)c2ccc3c(c2)N(C[C@@H]2CC[C@H]21)C[C@@]1(CCCc2cc(Cl)ccc21)CO3 [Example 71]
0.309 nM	–	294 nM	COc1nn(C)cc1C(=O)N[S@@]1(=O)=NC(=O)c2ccc3c(c2)N(C[C@@H]2CC[C@H]2[C@@H](OC)C#C[C@H](OC)[C@H](C)C1)C[C@@]1(CCCc2cc(Cl)ccc21)CO3 [Example 72]
